# Assay results reported in US20060019994A1, “I-sulphonlyl piperidine derivatives” (priority 2002, published 2006).
# pIC50: −log10 of the molar value.
# Target: T1, proTNF-α convertase enzyme (TACE) (Homo sapiens, UniProt P78536)
# T1 construct: a partially purified, isolated enzyme assay, the enzyme being obtained from the membranes of THP-1; endogenous in cells; host or cells: THP-1 cell membranes, partially purified
# Assay: Isolated enzyme assay, proTNF-α convertase (TACE), partially purified enzyme from membranes of THP-1, fluorescent peptide substrate
# Format: biochemical
# Conditions: 26° C. for 4 hours, read-out: concentration causing 50% inhibition of TACE
# Description: Recombinant human proMMP13 may be expressed and purified as described by Knauper et al. [V. Knauper et al., (1996) The Biochemical Journal 271:1544-1550 (1996)]. […] Activity is determined by measuring the fluorescence at λex 328 nm and λem 393 nm. Percent inhibition is calculated as follows: % Inhibition is equal to the [Fluorescenceplus inhibitor-Fluorescencebackground] divided by the [Fluorescenceminus inhibitor-Fluorescencebackground].
# The ability of the compounds to inhibit proTNF-α convertase enzyme (TACE) may be assessed using a partially purified, isolated enzyme assay, the enzyme being obtained from the membranes of THP-1 as described by K. M. Mohler et al., (1994) Nature 370:218-220. The purified enzyme activity and inhibition thereof is determined by incubating the partially purified enzyme in the presence or absence of test compounds using the substrate 4′,5′-Dimethoxy-fluoresceinyl Ser.Pro.Leu.Ala.Gln.Ala.Val.Arg.Ser.Ser.Ser.Arg.Cys(4-(3-succinimid-1-yl)-fluorescein)-NH2 in assay buffer (50 mM Tris HCl, pH 7.4 containing 0.1% (w/v) Triton X-100 and 2 mM CaCl2), at 26° C. for 4 hours. The amount of inhibition is determined as for MMP13 except λex 485 nm and λem 538 nm were used. […]
# T1 sequence (P78536 215-824): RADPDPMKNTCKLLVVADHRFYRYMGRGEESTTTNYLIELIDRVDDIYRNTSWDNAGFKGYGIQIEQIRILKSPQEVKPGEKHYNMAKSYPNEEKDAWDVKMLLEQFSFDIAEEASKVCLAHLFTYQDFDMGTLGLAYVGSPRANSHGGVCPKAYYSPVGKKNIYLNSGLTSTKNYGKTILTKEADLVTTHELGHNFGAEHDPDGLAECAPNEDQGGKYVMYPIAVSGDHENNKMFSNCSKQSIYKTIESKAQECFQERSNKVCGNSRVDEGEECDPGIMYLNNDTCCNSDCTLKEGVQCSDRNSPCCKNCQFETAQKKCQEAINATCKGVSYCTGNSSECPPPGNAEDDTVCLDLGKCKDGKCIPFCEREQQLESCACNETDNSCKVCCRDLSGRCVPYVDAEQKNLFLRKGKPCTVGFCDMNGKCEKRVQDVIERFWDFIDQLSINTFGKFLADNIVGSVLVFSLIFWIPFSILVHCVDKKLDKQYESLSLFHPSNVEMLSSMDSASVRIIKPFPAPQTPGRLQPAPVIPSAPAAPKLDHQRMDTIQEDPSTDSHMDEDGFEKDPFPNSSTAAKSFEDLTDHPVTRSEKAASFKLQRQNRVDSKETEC
smiles,measurement,value
"Cc1cc(COC2CCN(S(=O)(=O)CCC3NC(=O)NC3=O)CC2)c2ccccc2n1 (stereo not shown) [Example 3, 5-[2-({4-[(2-Methylquinolin-4-yl)methoxy]piperidin-1-yl}sulphonyl)ethyl]imidazolidine-2,4-dione]",pIC50,6.20
